Laboratory results from patent US9249163B2, “PDE10a inhibitors for the treatment of type II diabetes” (Janssen Pharmaceutica, NV, priority 2013, dated 2016).
Counter-ions that a name gives are not always drawn.

How the values were obtained:
[1] = target: Rat recombinant PDE10a (rPDE10a) (Rattus norvegicus (Rat), UniProt Q9QYJ6); experiment: In vitro assay PDE10a (rat recombinant PDE10a, SPA); assay type: biochemical; settings: 60 nM cAMP, 60 min at rt, read-out: rPDE10a2 IC50
Outline: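 Rat PDE10a expressed in Sf9 cells (baculovirus) and Ni-sepharose purified. Incubated with compound for 60 min at rt in 50 mM Tris pH 7.8, 8.3 mM MgCl2, 1.7 mM EGTA with 60 nM cAMP plus 0.008 μCi ^3H-cAMP (final), 1% DMSO. Read-out by PDE SPA bead scintillation counting (cpm), no-enzyme blank.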

[2] = target: Human recombinant PDE10A2 (Homo sapiens (Human), UniProt Q9Y233); experiment: In vitro hPDE10a (human recombinant PDE10A2, scintillation proximity assay); assay type: biochemical; settings: human recombinant PDE10A2, 60 nM cAMP, 60 min at room temperature; read-out: hPDE10a2 IC50
Sequence of Human recombinant PDE10A2 (Q9Y233 267-1055): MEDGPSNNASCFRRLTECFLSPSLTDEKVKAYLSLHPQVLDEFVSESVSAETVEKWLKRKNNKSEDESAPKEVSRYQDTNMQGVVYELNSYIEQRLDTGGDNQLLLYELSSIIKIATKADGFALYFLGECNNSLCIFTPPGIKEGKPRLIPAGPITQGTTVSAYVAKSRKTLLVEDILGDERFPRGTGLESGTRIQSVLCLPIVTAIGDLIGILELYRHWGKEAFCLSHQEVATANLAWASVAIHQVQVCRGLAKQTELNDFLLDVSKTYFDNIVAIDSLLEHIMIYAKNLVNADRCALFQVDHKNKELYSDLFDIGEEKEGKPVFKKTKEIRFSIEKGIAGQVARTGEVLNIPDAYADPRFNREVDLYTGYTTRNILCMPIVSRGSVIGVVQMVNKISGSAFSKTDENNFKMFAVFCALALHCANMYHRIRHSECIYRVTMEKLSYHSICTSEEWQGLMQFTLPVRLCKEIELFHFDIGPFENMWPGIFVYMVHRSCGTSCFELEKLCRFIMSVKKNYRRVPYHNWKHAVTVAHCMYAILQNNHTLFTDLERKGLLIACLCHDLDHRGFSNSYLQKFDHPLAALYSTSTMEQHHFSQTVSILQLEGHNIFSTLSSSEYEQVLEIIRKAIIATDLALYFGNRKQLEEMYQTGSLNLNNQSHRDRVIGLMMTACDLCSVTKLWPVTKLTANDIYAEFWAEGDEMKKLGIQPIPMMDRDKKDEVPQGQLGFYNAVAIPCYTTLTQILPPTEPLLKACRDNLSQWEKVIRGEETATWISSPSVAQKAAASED

[3] = PDE10a-perfused brain permeability study (plasma and brain concentrations); settings: male, Sprague-Dawley, rat; for Kp at 2 h: brain/plasma
Description: Drug administration by oral gavage, subcutaneous injection or intravenous was carried out using male Sprague Dawley rats under IACUC protocol (SH-MET3010). Male Sprague Dawley rats (Charles River) ˜300-350 g were maintained on a 4% standard rodent diet (Test Diet 5001). They are allowed ad libitum access to water and food. Room temperature was maintained at 64° F. and humidity at 30-70%.
Three animals per compound were provided a dose of 2 mg/mL in 20% HpbCD/Tris pH 8 by tail i.v. or 30 mpk p.o. or s.c. in 20% HpbCD/Tris pH 8, with PDE10a antagonists. A first blood sample was collected at 30 min via retro-orbital sinus (anesthetic by 70% CO2/30% O2) into heparinzed plasma separator tubes. The blood was centrifuged and 100 uL plasma was placed into a 96 well plate and saved on dry ice.
After the 120 min, the final blood sample was collected via retro-orbital sinus under anesthesia by IP 0.5 cc injection of a 4/1 mixture of Ketaset: AnaSed [(prepared 10 mL Ketaset (100 mg/mL Ketamine)+2.5 mL AnaSed (20 mg/mL Xylazine)]. The rats were then perfused with 400 mL heparinized saline (10,000 units/L) through the left ventricle of the heart; the brains were then removed (not including the medulla), weighed and homogenized in PBS (4 mL/g tissue). The samples were stored at −80° C. and submitted for chemical analysis of blood and brain concentrations. Endpoints of sample analysis consists of the plasma concentrations at 30 and 120 min, plus brain concentrations at 120 min.

Sequence of Rat recombinant PDE10a (rPDE10a) (Q9QYJ6 whole entry): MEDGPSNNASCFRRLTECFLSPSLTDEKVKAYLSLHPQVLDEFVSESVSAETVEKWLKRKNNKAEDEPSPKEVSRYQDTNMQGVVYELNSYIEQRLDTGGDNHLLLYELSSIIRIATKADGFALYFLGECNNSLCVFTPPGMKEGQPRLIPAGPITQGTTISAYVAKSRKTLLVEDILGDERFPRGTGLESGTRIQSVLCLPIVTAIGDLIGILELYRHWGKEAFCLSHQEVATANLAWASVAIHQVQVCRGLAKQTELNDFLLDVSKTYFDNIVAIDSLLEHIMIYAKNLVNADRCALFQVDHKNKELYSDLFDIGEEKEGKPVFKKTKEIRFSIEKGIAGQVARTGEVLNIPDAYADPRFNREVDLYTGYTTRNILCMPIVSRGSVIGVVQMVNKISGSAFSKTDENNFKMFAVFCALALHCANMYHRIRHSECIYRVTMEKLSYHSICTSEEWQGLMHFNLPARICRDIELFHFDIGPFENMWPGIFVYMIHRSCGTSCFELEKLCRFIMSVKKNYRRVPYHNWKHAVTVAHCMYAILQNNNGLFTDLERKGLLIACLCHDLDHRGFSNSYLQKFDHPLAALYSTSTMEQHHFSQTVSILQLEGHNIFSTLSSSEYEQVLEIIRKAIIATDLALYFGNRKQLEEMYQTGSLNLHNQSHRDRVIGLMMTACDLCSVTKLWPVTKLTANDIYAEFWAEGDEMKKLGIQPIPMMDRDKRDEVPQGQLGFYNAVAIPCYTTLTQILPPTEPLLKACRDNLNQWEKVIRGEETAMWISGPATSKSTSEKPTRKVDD

SMILES | IC50 [1] | IC50 [2] | concentration at 2 h ([3]; brain) | Kp at 2 h [3] | concentration at 2 h ([3]; plasma)
O=C(O)CN1CCC(c2cnc(N3CCOCC3)c3nc(COc4ccc5ccccc5n4)cn23)CC1 [Cpd 110, 2-(4-(8-Morpholino-2-((quinolin-2-yloxy)methyl)imidazo[1,2-a]pyrazin-5-yl)piperidin-1-yl)acetic acid trifluoroacetic acid salt] | 288 nM | 407 nM | 0 ng/g | 0 | 4.63 ng/mL
CC(=O)NS(=O)(=O)c1ccc(-c2cnc(N3CCOCC3)c3nc(/C=C/c4ccc5ccccc5n4)cn23)cc1 [Cpd 69, (E)-N-(4-(8-Morpholino-2-(2-(quinolin-2-yl)vinyl)imidazo[1,2-a]pyrazin-5-yl)phenylsulfonyl)acetamide trifluoroacetic acid salt] | 4 nM | 4 nM | 36.1 ng/g | 1 | 73.6 ng/mL
O=C(Nc1cn2c(-c3ccc(N4CCNCC4)nc3)cnc(N3CCOCC3)c2n1)c1ccc2ccccc2n1 [Cpd 125, N-(8-Morpholino-5-(6-(piperazin-1-yl)pyridin-3-yl)imidazo[1,2-a]pyrazin-2-yl)quinoline-2-carboxamide hydrochloric acid salt] | 339 nM | 309 nM | 54.9 ng/g | 1.2 | 45.9 ng/mL
O=C(O)CNc1ccc(-c2cnc(N3CCOCC3)c3nc(COc4ccc5ccccc5n4)cn23)cn1 [Cpd 107, 2-((5-(8-Morpholino-2-((quinolin-2-yloxy)methyl)imidazo[1,2-a]pyrazin-5-yl)pyridin-2-yl)amino)acetic acid trifluoroacetic acid salt] | 2 nM | 2 nM | 0 ng/g | 0 | 22.5 ng/mL
C(=C\c1cn2c(-c3cnc4nc[nH]c4c3)cnc(N3CCOCC3)c2n1)/c1ccc2ccccc2n1 [Cpd 93, (E)-4-(5-(3H-Imidazo[4,5-b]pyridin-6-yl)-2-(2-(quinolin-2-yl)vinyl)imidazo[1,2-a]pyrazin-8-yl)morpholine] | 10 nM | 13 nM | 0 ng/g | 0 | 98 ng/mL

More lines, now with the values ahead:

IC50 [1] | IC50 [2] | concentration at 2 h ([3]; brain) | Kp at 2 h [3] | concentration at 2 h ([3]; plasma) | SMILES
83 nM | 59 nM | 81.5 ng/g | 1.55 | 55.1 ng/mL | c1ccc2nc(OCc3cn4c(-c5cnc(N6CCNCC6)nc5)cnc(N5CCOCC5)c4n3)ccc2c1 [Cpd 121, 4-(5-(2-(Piperazin-1-yl)pyrimidin-5-yl)-2-((quinolin-2-yloxy)methyl)imidazo[1,2-a]pyrazin-8-yl)morpholine methane sulfonic acid salt]
1 nM | 1 nM | 0 ng/g | 0 | 84 ng/mL | c1ccc2nc(OCc3cn4c(-c5ccc(-c6nnn[nH]6)nc5)cnc(N5CCOCC5)c4n3)ccc2c1 [Cpd 97, 4-(5-(6-(1H-Tetrazol-5-yl)pyridin-3-yl)-2-((quinolin-2-yloxy)methyl)imidazo[1,2-a]pyrazin-8-yl)morpholine]
27 nM | 31 nM | 21.9 ng/g | 2.07 | 11 ng/mL | c1cncc(-c2cnc(N3CCOCC3)c3nc(COc4ccc5ccccc5n4)cn23)c1 [Cpd 129, 4-(5-(Pyridin-3-yl)-2-((quinolin-2-yloxy)methyl)imidazo[1,2-a]pyrazin-8-yl)morpholine methane sulfonic acid salt]
< 1 nM | 1 nM | 0 ng/g | 0 | 58 ng/mL | O=c1[nH]c(-c2ccc(-c3cnc(N4CCOCC4)c4nc(CCc5ccc6ccccc6n5)cn34)cn2)no1 [Cpd 74, 3-[5-[8-(Morpholin-4-yl)-2-[2-(quinolin-2-yl)ethyl]imidazo[1,2-a]pyrazin-5-yl]pyridin-2-yl]-4,5-dihydro-1,2,4-oxadiazol-5-one]
